{"source": "patent US10851069B2", "about": "“Compositions of crystallized hydrophobic compounds and methods of making and using same” (Massachusetts Institute of Technology, priority 2016, dated 2020)", "key": {"[1]": {"system": "inflammatory macrophage markers Sphk1, TNFα, Arg1, IL1", "assay": "NanoString multiplexed gene expression analysis of retrieved capsules", "format": "in vivo, C57BL/6 mice", "settings": "amorphous drug-loaded capsules, 2 weeks IP; CSF1R-targeting agents compared", "protocol": "RNAs for mock-implanted (mock) controls, or for various drug-loaded 0.5 mm diameter alginate sphere-bearing mice (n=4/group) were isolated from tissue samples taken at various time points after implantation, as described. Respective RNAs were quantified, diluted to the appropriate concentration (100 ng/μl), and then 500 ng of each sample was processed according to NanoString manufacturer protocols for expression analysis via our customized multiplexed gene mouse macrophage subtyping panel. RNA levels (absolute copy numbers) were obtained following nCounter (NanoString Technologies Inc., Seattle, Wash.) quantification, and group samples were analyzed using nSolver analysis software (NanoString Technologies Inc., Seattle, Wash.)."}, "[2]": {"system": "host (mouse) alpha smooth muscle actin (αSMact)", "assay": "qPCR of explanted capsules, host fibrosis marker", "format": "in vivo", "settings": "explanted at approximately 430 (amorphous) or 460 (crystalline) days post-transplant", "text": "Total RNA was isolated from fibrosed spheres (with adhered tissue and immune overgrowth, if present), liquid nitrogen snap-frozen immediately following excision, using TRIzol (Invitrogen, Carlsbad, Calif.) according to the manufacturer's instructions. In addition, to help ensure complete tissue disruption, we also employed strong mechanical disruption with a Polytron homogenizer. Thus, gene expression signatures shown throughout are proportional and representative of the entire cell population present on and/or around retrieved materials. […] Mouse (5′-[…]-3′ (SEQ. ID. No.:1); reverse: 5′-CGGGTTCCGCTGTGTAAG-3′ (SEQ. ID. No.:2)) and rat (5′-CTCTCGTGCCATGTGAACC-3′ (SEQ. ID. No.:3); reverse: 5′-[…]-3′ (SEQ. ID. No.:4)) Pdx1 primers were designed using Primer Express software (Applied Biosystems, Carlsbad, Calif., USA) and evaluated using LaserGene software (DNAStar, Madison, Wis., USA) to ensure species rat (encapsulated islet) or mouse (host)-specificity, and normalized to mouse (5′-[…]-3′ (SEQ. ID. No.:5); reverse: 5′-[…]-3′ (SEQ. ID. No.:6)) and rat (5′-[…]-3′ (SEQ. ID. No.:7); reverse: 5′-[…]-3′ (SEQ. ID. No.:8)) Beta-actin, respectively. […] Results were analyzed using the comparative CT (ΔΔCT) method as described by the manufacturer. […]"}, "C57BL/6 mice": {"system": "C57BL/6 mice", "assay": "Naked GW2580 crystals co-injected SC with polystyrene or glass spheres, 2 weeks", "format": "in vivo", "protocol": "Naked crystals of GW2580 or saline-only (no drug control) were delivered intraperitoneally along with 500 μm alginate spheres for 2 weeks to C57BL/6 mice. […] Brightfield and fluorescence imaging was used to emphasize the respective presence or lack of fibrotic overgrowth on retrieved alginate spheres from either saline (control) or crystalline GW2580 treatment groups (FIG. 17C). […] GW2580 crystal testing (at doses of 0.5 and 5 mg/SC site) was also extended into the SC implant space with other immunogenic materials, ceramic glass (GL) and polymer polystyrene (PS). […] Retrieved materials where fixed overnight using 4% paraformaldehyde at 4° C. After fixation, alginate sphere or retrieved tissue samples were washed using 70% alcohol. The materials where then mixed with 4 degrees calcium-cooled Histogel (VWR, CA #60872-486). After the molds hardened, the blocks were processed for paraffin embedding, sectioning and staining according to standard histological methods. Single-cell suspensions of freshly excised tissues were prepared using a gentle MACS Dissociator (Miltenyi Biotec, Auburn, Calif.) according to the manufacturer's protocol. Single-cell suspensions were prepared in a passive PEB dissociation buffer (1×PBS, pH 7.2, 0.5% BSA, and 2 mM EDTA) and suspensions were passed through 70 μm filters (Cat. #22363548, Fisher Scientific, Pittsburgh, Pa.). This process removed the majority of cells adhered to the surface (>90%). All tissue and material sample-derived, single-cell populations were then subjected to red blood cell lysis with 5 ml of 1×RBC lysis buffer (Cat. #00-4333, eBioscience, San Diego, Calif., USA) for 5 min at 4° C. The reaction was terminated by the addition of 20 ml of sterile 1×PBS. The cells remaining were centrifuged at 300-400 g at 4° C. and resuspended in a minimal volume (˜50 μl) of eBioscience Staining Buffer (cat. #00-4222) for antibody incubation. All samples were then co-stained in the dark for 25 min at 4° C. with two of the fluorescently tagged monoclonal antibodies specific for the cell markers CD68 (1 μl (0.5 μg) per sample; CD68-Alexa647, Clone FA-11, Cat. #11-5931, BioLegend), Ly-6G (Gr-1) (1 μl (0.5 μg) per sample; Ly-6G-Alexa-647, Clone RB6-8C5, Cat. #108418, BioLegend), CD11b (1 μl (0.2 μg) per sample; or CD11b-Alexa-488, Clone M1/70, Cat. #101217, BioLegend). For alpha smooth muscle actin (fibrosis) analysis, additional cell aliquots were also fixed in 1% paraformaldehyde and permeabilized with 0.1% triton X-100 before being stained with Cy3-conjugated anti-mouse αSM actin antibody (1:100) (Sigma Aldrich, St. Louis, Mo.). Two ml of eBioscience Flow Cytometry Staining Buffer (cat. #00-4222, eBioscience) was then added, and the samples were centrifuged at 400-500 g for 5 min at 4° C. […]"}}}
{"smiles": "COc1ccc(COc2ccc(Cc3cnc(N)nc3N)cc2OC)cc1", "note": "[GW2580, 5-[[3-Methoxy-4-[(4-methoxyphenyl)methoxy]phenyl]methyl]-2,4-pyrimidinediamine]", "values": [{"measurement": "gene expression responses", "setting": "[1]", "result": "almost identical gene expression responses"}, {"measurement": "lower αSMact expression, crystal versus amorphous capsules", "setting": "[2]", "result": 74, "unit": "%"}, {"measurement": "responding macrophages (FACS)", "setting": "C57BL/6 mice; SC-implanted PS and GL 0.5 mm spheres, 2 weeks", "result": "significant reductions in responding macrophages"}, {"measurement": "drug extracted from nearby tissue", "setting": "C57BL/6 mice; all implant groups, 2 weeks", "result": "large quantities of remaining drug"}, {"measurement": "anti-fibrotic effect", "setting": "C57BL/6 mice; ceramic glass (GL) spheres, SC, no histology", "result": "anti-fibrotic effects were also observed"}, {"measurement": "anti-fibrotic effect (H&E and Masson's Trichrome)", "setting": "C57BL/6 mice; polystyrene (PS) spheres, SC, 0.5 and 5 mg/SC site, 2 weeks", "result": "significant anti-fibrotic effects"}]}
